{
  "source": "patent US9730446B2",
  "about": "“Herbicidal compositions comprising 4-amino-3-chloro-6-(4-chloro-2-fluoro-3-methoxyphenyl)pyridine-2-carboxylic acid or a derivative thereof and propyzamide” (Dow AgroSciences LLC, priority 2013, dated 2017)",
  "assay_type_in_all_cases": "in vivo",
  "key": {"winter oilseed rape": {"tested_on": "winter oilseed rape", "assay": "Field trial, visual crop injury ratings", "settings": "varying rates, crop Growth Stage 39-50, 32, 49, and 74 days after treatment, in each case", "procedure": "Multiple small plot research experiments were conducted to evaluate efficacy and tolerance of winter oilseed rape to compositions described herein. Typical small plots (2-4×4-10 meters (m)) were used in growers' fields under natural conditions with normal commercial cultural practices. Backpack sprayers were used to apply all treatments based on unit area. The methyl ester of formula (I) and propyzamide were tested alone and in combination at varying rates. Application water volume was 150 L/ha. Crop stage was at Growth Stage 39-50. Visual crop injury ratings were collected 32, 49, and 74 days after treatment. […] The reported values are means."}, "[1]": {"tested_on": "CHEAL Chenopodium album L. (common lambsquarters)", "assay": "Postemergent herbicidal activity, greenhouse", "settings": "foliar, 14 d", "procedure": "(§1) Evaluation of Postemergent Herbicidal Activity. Seeds or nutlets of the desired test plant species were planted in Sun Gro Metro-Mix® 360 planting mixture, which typically has a pH of 6.0 to 6.8 and an organic matter content of about 30 percent, in plastic pots with a surface area of 64 square centimeters (cm^2). […] The plants were grown for 7-21 days (d) in a greenhouse with an approximate 15 hour (h) photoperiod which was maintained at about 23-29° C. during the day and 22-28° C. during the night. Nutrients and water were added on a regular basis and supplemental lighting was provided with overhead metal halide 1000-Watt lamps as necessary. The plants were employed for testing when they reached the first or second true leaf stage.\n(§2) A weighed amount, determined by the highest rate to be tested, of each test compound was placed in a 25 milliliter (mL) glass vial and was dissolved in 4 mL of a 97:3 volume per volume (v/v) mixture of acetone and dimethyl sulfoxide (DMSO) to obtain concentrated stock solutions. […] The concentrated stock solutions obtained were diluted with 20 mL of an aqueous mixture containing acetone, water, isopropyl alcohol, DMSO, Atplus 411F crop oil concentrate, and Triton® X-155 surfactant in a 48.5:39:10:1.5:1.0:0.02 v/v ratio to obtain spray solutions containing the highest application rates. Additional application rates were obtained by serial dilution of 12 mL of the high rate solution into a solution containing 2 mL of a 97:3 v/v mixture of acetone and DMSO and 10 mL of an aqueous mixture containing acetone, water, isopropyl alcohol, DMSO, Atplus 411F crop oil concentrate, and Triton X-155 surfactant in a 48.5:39:10:1.5:1.0:0.02 v/v ratio to obtain 1/2×, 1/4×, 1/8× and 1/16× rates of the high rate. Compound requirements are based upon a 12 mL application volume at a rate of 187 liters per hectare (L/ha). Formulated compounds were applied to the plant material with an overhead Mandel track sprayer equipped with 8002E nozzles calibrated to deliver 187 L/ha over an application area of 0.503 square meters (m^2) at a spray height of 18 inches (43 cm) above the average plant canopy height. Control plants were sprayed in the same manner with the solvent blank.\n(§3) Treatments consisted of the methyl ester of 4-amino-3-chloro-6-(4-chloro-2-fluoro-3-methoxyphenyl)pyridine-2-carboxylic acid (Cmpd 1) as technical grade material and propyzamide (Kerb 50 W) alone and in combination.\n(§4) The treated plants and control plants were placed in a greenhouse as described above and watered by subirrigation to prevent wash-off of the test compounds. After 14 d, the condition of the test plants as compared with that of the untreated plants was determined visually and scored on a scale of 0 to 100 percent where 0 corresponds to no injury and 100 corresponds to complete kill.\n(§5) Colby's equation was used to determine the herbicidal effects expected from the mixtures (Colby, S. R. Calculation of the synergistic and antagonistic response of herbicide combinations. Weeds 1967, 15, 20-22). More specifically, the following equation was used to calculate the expected activity of mixtures containing two active ingredients, A and B: Expected=A+B−(A×B/100) A=observed efficacy of active ingredient A at the same concentration as used in the mixture; B=observed efficacy of active ingredient B at the same concentration as used in the mixture."}, "[2]": {"tested_on": "EPHHL Euphorbia heterophylla L. (wild poinsettia)", "assay": "Postemergent herbicidal activity, greenhouse", "settings": "foliar, 14 d", "procedure": "as §1, §2, §3, §4, §5"}, "[3]": {"tested_on": "VIOTR Viola tricolor L. (wild violet)", "assay": "Postemergent herbicidal activity, greenhouse", "settings": "foliar, 14 d", "procedure": "as §1, §2, §3, §4, §5"}, "[4]": {"tested_on": "GLXMA Glycine max (volunteer soybean)", "assay": "Postemergent herbicidal activity, greenhouse", "settings": "foliar, 14 d", "procedure": "as §1, §2, §3, §4, §5"}, "[5]": {"tested_on": "POLCO Polygonum convolvulus L. (wild buckwheat)", "assay": "Postemergent herbicidal activity, greenhouse", "settings": "foliar, 14 d", "procedure": "as §1, §2, §3, §4, §5"}, "[6]": {"tested_on": "SETFA Setaria faberi Herrm. (giant foxtail)", "assay": "Postemergent herbicidal activity, greenhouse", "settings": "foliar, 14 d", "procedure": "as §1, §2, §3, §4, §5"}, "[7]": {"tested_on": "CIRAR Cirsium arvense (L.) Scop. (Canada thistle)", "assay": "Postemergent herbicidal activity, greenhouse", "settings": "foliar, 14 d", "procedure": "as §1, §2, §3, §4, §5"}, "[8]": {"tested_on": "STEME Stellaria media (L.) Vill. (common chickweed)", "assay": "Postemergent herbicidal activity, greenhouse", "settings": "foliar, 14 d", "procedure": "as §1, §2, §3, §4, §5"}, "[9]": {"tested_on": "BRSNW Brassica napus (winter oilseed rape)", "assay": "Postemergent herbicidal activity, greenhouse", "settings": "foliar, 14 d", "procedure": "as §1, §2, §3, §4, §5"}, "[10]": {"tested_on": "AMARE Amaranthus retroflexus L. (redroot pigweed)", "assay": "Postemergent herbicidal activity, greenhouse", "settings": "foliar, 14 d", "procedure": "as §1, §2, §3, §4, §5"}, "[11]": {"tested_on": "IPOHE Ipomoea hederacea (L.) Jacq. (ivyleaf morningglory)", "assay": "Postemergent herbicidal activity, greenhouse", "settings": "foliar, 14 d", "procedure": "as §1, §2, §3, §4, §5"}, "[12]": {"tested_on": "ABUTH Abutilon theophrasti Medik. (velvetleaf)", "assay": "Postemergent herbicidal activity, greenhouse", "settings": "foliar, 14 d", "procedure": "as §1, §2, §3, §4, §5"}},
  "data": [
    {"compound": "COC(=O)c1nc(-c2ccc(Cl)c(OC)c2F)cc(N)c1Cl", "note": "[Cmpd I, methyl ester of 4-amino-3-chloro-6-(4-chloro-2-fluoro-3-methoxyphenyl)pyridine-2-carboxylic acid]", "values": [
      {"measurement": "Visual crop injury rating", "setting": "winter oilseed rape", "result": 0, "unit": "% injury"},
      {"measurement": "% control rated visually, ob (observed)", "setting": "[1]; Cmpd I 2.5 g ae/ha", "result": 82, "unit": "%"},
      {"measurement": "% control rated visually, ob (observed)", "setting": "[1]; Cmpd I 5 g ae/ha", "result": 90, "unit": "%"},
      {"measurement": "% control rated visually, ob (observed)", "setting": "[1]; Cmpd I 10 g ae/ha", "result": 91, "unit": "%"},
      {"measurement": "% control rated visually, ob (observed)", "setting": "[2]; Cmpd I 2.5 g ae/ha", "result": 85, "unit": "%"},
      {"measurement": "% control rated visually, ob (observed)", "setting": "[2]; Cmpd I 5 g ae/ha", "result": 93, "unit": "%"},
      {"measurement": "% control rated visually, ob (observed)", "setting": "[2]; Cmpd I 10 g ae/ha", "result": 100, "unit": "%"},
      {"measurement": "% control rated visually, ob (observed)", "setting": "[3]; Cmpd I 2.5 g ae/ha", "result": 30, "unit": "%"},
      {"measurement": "% control rated visually, ob (observed)", "setting": "[3]; Cmpd I 5 g ae/ha", "result": 43, "unit": "%"},
      {"measurement": "% control rated visually, ob (observed)", "setting": "[3]; Cmpd I 10 g ae/ha", "result": 62, "unit": "%"},
      {"measurement": "% control rated visually, ob (observed)", "setting": "[4]; Cmpd I 2.5 g ae/ha", "result": 80, "unit": "%"},
      {"measurement": "% control rated visually, ob (observed)", "setting": "[4]; Cmpd I 5 g ae/ha", "result": 87, "unit": "%"},
      {"measurement": "% control rated visually, ob (observed)", "setting": "[4]; Cmpd I 10 g ae/ha", "result": 100, "unit": "%"},
      {"measurement": "% control rated visually, ob (observed)", "setting": "[5]; Cmpd I 2.5 g ae/ha", "result": 35, "unit": "%"},
      {"measurement": "% control rated visually, ob (observed)", "setting": "[5]; Cmpd I 5 g ae/ha", "result": 25, "unit": "%"},
      {"measurement": "% control rated visually, ob (observed)", "setting": "[5]; Cmpd I 10 g ae/ha", "result": 48, "unit": "%"},
      {"measurement": "% control rated visually, ob (observed)", "setting": "[6]; Cmpd I 2.5 g ae/ha", "result": 0, "unit": "%"},
      {"measurement": "% control rated visually, ob (observed)", "setting": "[6]; Cmpd I 5 g ae/ha", "result": 5, "unit": "%"},
      {"measurement": "% control rated visually, ob (observed)", "setting": "[6]; Cmpd I 10 g ae/ha", "result": 35, "unit": "%"},
      {"measurement": "% control rated visually, ob (observed)", "setting": "[7]; Cmpd I 2.5 g ae/ha", "result": 47, "unit": "%"},
      {"measurement": "% control rated visually, ob (observed)", "setting": "[7]; Cmpd I 5 g ae/ha", "result": 53, "unit": "%"},
      {"measurement": "% control rated visually, ob (observed)", "setting": "[7]; Cmpd I 10 g ae/ha", "result": 65, "unit": "%"},
      {"measurement": "% control rated visually, ob (observed)", "setting": "[8]; Cmpd I 2.5 g ae/ha", "result": 50, "unit": "%"},
      {"measurement": "% control rated visually, ob (observed)", "setting": "[8]; Cmpd I 5 g ae/ha", "result": 57, "unit": "%"},
      {"measurement": "% control rated visually, ob (observed)", "setting": "[8]; Cmpd I 10 g ae/ha", "result": 72, "unit": "%"},
      {"measurement": "% control rated visually, ob (observed)", "setting": "[9]; Cmpd I 2.5 g ae/ha", "result": 0, "unit": "%"},
      {"measurement": "% control rated visually, ob (observed)", "setting": "[9]; Cmpd I 5 g ae/ha", "result": 0, "unit": "%"},
      {"measurement": "% control rated visually, ob (observed)", "setting": "[9]; Cmpd I 10 g ae/ha", "result": 10, "unit": "%"},
      {"measurement": "% control rated visually, ob (observed)", "setting": "[10]; Cmpd I 2.5 g ae/ha", "result": 50, "unit": "%"},
      {"measurement": "% control rated visually, ob (observed)", "setting": "[10]; Cmpd I 5 g ae/ha", "result": 58, "unit": "%"},
      {"measurement": "% control rated visually, ob (observed)", "setting": "[10]; Cmpd I 10 g ae/ha", "result": 77, "unit": "%"},
      {"measurement": "% control rated visually, ob (observed)", "setting": "[11]; Cmpd I 2.5 g ae/ha", "result": 20, "unit": "%"},
      {"measurement": "% control rated visually, ob (observed)", "setting": "[11]; Cmpd I 5 g ae/ha", "result": 38, "unit": "%"},
      {"measurement": "% control rated visually, ob (observed)", "setting": "[11]; Cmpd I 10 g ae/ha", "result": 43, "unit": "%"},
      {"measurement": "% control rated visually, ob (observed)", "setting": "[12]; Cmpd I 2.5 g ae/ha", "result": 87, "unit": "%"},
      {"measurement": "% control rated visually, ob (observed)", "setting": "[12]; Cmpd I 5 g ae/ha", "result": 85, "unit": "%"},
      {"measurement": "% control rated visually, ob (observed)", "setting": "[12]; Cmpd I 10 g ae/ha", "result": 90, "unit": "%"}
    ]}
  ]
}
